Here are results for 33 compounds from patent publication US9023847B2, “Azaheterocyclic compounds” (Merck Patent GmbH, priority 2009, dated 2015).

Each structure is given as a SMILES string. Where only a bound is given, the exact number is not on record here.

The target in this experiment is T1, P70S6K (T412E mutant, Millipore) (Homo sapiens, UniProt P23443, T412E).
T1 construct: purchased Millipore
T1 sequence (P23443 whole entry T412E): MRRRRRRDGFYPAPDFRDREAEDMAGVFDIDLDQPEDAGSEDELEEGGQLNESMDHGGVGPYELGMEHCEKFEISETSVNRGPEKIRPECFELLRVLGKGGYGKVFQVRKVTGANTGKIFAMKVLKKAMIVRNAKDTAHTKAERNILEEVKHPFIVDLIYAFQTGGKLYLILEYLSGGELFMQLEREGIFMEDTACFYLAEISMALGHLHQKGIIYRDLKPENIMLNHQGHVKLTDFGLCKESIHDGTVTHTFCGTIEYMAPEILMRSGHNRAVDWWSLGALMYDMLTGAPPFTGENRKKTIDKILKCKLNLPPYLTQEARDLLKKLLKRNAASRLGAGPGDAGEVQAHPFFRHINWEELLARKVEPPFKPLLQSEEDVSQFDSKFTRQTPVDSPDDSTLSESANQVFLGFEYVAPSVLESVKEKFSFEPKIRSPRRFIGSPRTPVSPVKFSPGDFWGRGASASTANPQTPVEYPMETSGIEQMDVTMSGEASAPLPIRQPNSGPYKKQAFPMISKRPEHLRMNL
Nature of the experiment: p70S6K enzyme assay. Format: biochemical. The note with it: class symbol; 3 nM P70S6K, 24 μM ATP; read-out: IC50 (p70S6K). How it is done: P70S6K inhibitor compounds are diluted and plated in 96 well plates. A reaction mixture including the following components is then added to the compound plate to initiate the enzyme reaction; P70S6K (3 nM, T412E mutant, Millipore) is mixed with 24 μM ATP in an assay buffer containing 100 mM Hepes (pH 7.5), 5 mM MgCl2, 1 mM DTT, 0.015% Brij and 1 μM of the substrate peptide FITC-AHA-AKRRRLSSLRA-OH (derived from the S6 ribosomal protein sequence, FITC=fluorescein isothiocyanate, AHA=6-aminohexanoic acid). The reaction is incubated for 90 min at 25° C., before the addition of 10 mM EDTA to stop the reaction. The proportion of substrate and product (phosphorylated) peptide is analysed on a Caliper Life Sciences Lab Chip 3000, using a pressure of −1.4 psi, and upstream and downstream voltages of −3000 and −700 respectively. Product peaks are resolved before substrate peaks on the resulting chromatograms.
The term IC50 denotes the concentration that gives 50% inhibition. Regarding `CCOC(=O)CCNC(=O)c1sccc1Nc1ccnc2[nH]ccc12` [Example 33, 3-{[3-(1H-Pyrrolo[2,3-b]pyridin-4-ylamino)-thiophene-2-carbonyl]-amino}-propionic acid ethyl ester], the IC50 lay in the range of 100 to 1000 nM.
With `O=C(NCCNc1ccccc1)c1sccc1Nc1ccnc2[nH]ccc12` [Example 34, 3-(1H-Pyrrolo[2,3-b]pyridin-4-ylamino)-thiophene-2-carboxylic acid (2-phenylamino-ethyl)-amide] the figure was less than 100 nM; with `O=C(Nc1ccc(Cl)cc1)c1sccc1Nc1ccnc2[nH]ccc12` [Example 35, 3-(1H-Pyrrolo[2,3-b]pyridin-4-ylamino)-thiophene-2-carboxylic acid (4-chloro-phenyl)-amide], less than 100 nM.
With `COc1ccc(NC(=O)c2sccc2Nc2ccnc3[nH]ccc23)cc1` [Example 36, 3-(1H-Pyrrolo[2,3-b]pyridin-4-ylamino)-thiophene-2-carboxylic acid (4-methoxy-phenyl)-amide] the figure was less than 100 nM.
For `O=C(Nc1ccc(F)cc1)c1sccc1Nc1ccnc2[nH]ccc12` [Example 37, 3-(1H-Pyrrolo[2,3-b]pyridin-4-ylamino)-thiophene-2-carboxylic acid (4-fluoro-phenyl)-amide], the IC50 was less than 100 nM.
With `COc1cccc(NC(=O)c2sccc2Nc2ccnc3[nH]ccc23)c1` [Example 39, 3-(1H-Pyrrolo[2,3-b]pyridin-4-ylamino)-thiophene-2-carboxylic acid (3-methoxy-phenyl)-amide] the figure was 100 to 1000 nM; with `COc1ccc(CNCCNC(=O)c2sccc2Nc2ccnc3[nH]ccc23)cc1` [Example 40, 3-(1H-Pyrrolo[2,3-b]pyridin-4-ylamino)-thiophene-2-carboxylic acid [2-(4-methoxy-benzylamino)-ethyl]-amide], less than 100 nM.
Then `O=C(NCCNCc1ccccn1)c1sccc1Nc1ccnc2[nH]ccc12` [Example 41, 3-(1H-Pyrrolo[2,3-b]pyridin-4-ylamino)-thiophene-2-carboxylic acid {2-[(pyridin-2-ylmethyl)-amino]-ethyl}-amide], with less than 100 nM; and `NCCNC(=O)c1sccc1Nc1ccnc2[nH]ccc12` [Example 42, 3-(1H-Pyrrolo[2,3-b]pyridin-4-ylamino)-thiophene-2-carboxylic acid (2-amino-ethyl)-amide], with less than 100 nM.
Then `O=C(N[C@@H](CO)c1ccccc1)c1sccc1Nc1ccnc2[nH]ccc12` [Example 43, R-[3-(1H-Pyrrolo[2,3-b]pyridin-4-ylamino)-thiophene-2-carboxylic acid (2-hydroxy-1-phenyl-ethyl)-amide]], with 1000 to 10000 nM; and `O=C(N[C@H](CO)c1ccccc1)c1sccc1Nc1ccnc2[nH]ccc12` [Example 44, S-[3-(1H-Pyrrolo[2,3-b]pyridin-4-ylamino)-thiophene-2-carboxylic acid (2-hydroxy-1-phenyl-ethyl)-amide]], with less than 100 nM; and `CC(=O)N(CCNC(=O)c1sccc1Nc1ccnc2[nH]ccc12)Cc1ccccc1` [Example 45, 3-(1H-Pyrrolo[2,3-b]pyridin-4-ylamino)-thiophene-2-carboxylic acid [2-(acetyl-benzyl-amino)-ethyl]-amide], with 100 to 1000 nM.
For the compound `O=C(NCCNCc1ccsc1)c1sccc1Nc1ccnc2[nH]ccc12` [Example 46, 3-(1H-Pyrrolo[2,3-b]pyridin-4-ylamino)-thiophene-2-carboxylic acid {2-[(thiophen-3-ylmethyl)-amino]-ethyl}-amide], the IC50 was less than 100 nM.
Then `O=C(NCCN(Cc1ccoc1)Cc1ccoc1)c1sccc1Nc1ccnc2[nH]ccc12` [Example 47, 3-(1H-Pyrrolo[2,3-b]pyridin-4-ylamino)-thiophene-2-carboxylic acid [2-(bis-furan-3-ylmethyl-amino)-ethyl]-amide], with less than 100 nM; and `O=C(NCCNCc1ccccc1OC(F)(F)F)c1sccc1Nc1ccnc2[nH]ccc12` [Example 48, 3-(1H-Pyrrolo[2,3-b]pyridin-4-ylamino)-thiophene-2-carboxylic acid [2-(2-trifluoromethoxy-benzylamino)-ethyl]amide], with less than 100 nM.
Then `COc1cccc(CNCCNC(=O)c2sccc2Nc2ccnc3[nH]ccc23)c1` [Example 49, 3-(1H-Pyrrolo[2,3-b]pyridin-4-ylamino)-thiophene-2-carboxylic acid [2-(3-methoxy-benzylamino)-ethyl]-amide], with less than 100 nM.
In the case of `O=C(NCCNCc1cccc(OC(F)(F)F)c1)c1sccc1Nc1ccnc2[nH]ccc12` [Example 50, 3-(1H-Pyrrolo[2,3-b]pyridin-4-ylamino)-thiophene-2-carboxylic acid [2-(3-trifluoromethoxy-benzylamino)-ethyl]-amide], the IC50 is less than 100 nM.
With `O=C(NCCNCc1ccc(OC(F)(F)F)cc1)c1sccc1Nc1ccnc2[nH]ccc12` [Example 51, 3-(1H-Pyrrolo[2,3-b]pyridin-4-ylamino)-thiophene-2-carboxylic acid [2-(4-trifluoromethoxy-benzylamino)-ethyl]-amide] the figure was less than 100 nM; with `O=C(NCCNCc1ccc(C(F)(F)F)cc1)c1sccc1Nc1ccnc2[nH]ccc12` [Example 52, 3-(1H-Pyrrolo[2,3-b]pyridin-4-ylamino)-thiophene-2-carboxylic acid [2-(4-trifluoromethyl-benzylamino)-ethyl]-amide], less than 100 nM; with `O=C(NCCNCc1ccoc1)c1sccc1Nc1ccnc2[nH]ccc12` [Example 53, 3-(1H-Pyrrolo[2,3-b]pyridin-4-ylamino)-thiophene-2-carboxylic acid {2-[(furan-3-ylmethyl)-amino]-ethyl}-amide], less than 100 nM.
Then `Cc1cccc(CN(CCNC(=O)c2sccc2Nc2ccnc3[nH]ccc23)Cc2cccc(C)c2)c1` [Example 55, 3-(1H-Pyrrolo[2,3-b]pyridin-4-ylamino)-thiophene-2-carboxylic acid {2-[bis-(3-methyl-benzyl)-amino]-ethyl}-amide], with 100 to 1000 nM.
Then `Cc1cccc(CNCCNC(=O)c2sccc2Nc2ccnc3[nH]ccc23)c1` [Example 56, 3-(1H-Pyrrolo[2,3-b]pyridin-4-ylamino)-thiophene-2-carboxylic acid [2-(3-methyl-benzylamino)-ethyl]-amide], with less than 100 nM; and `O=C(NCCNCc1ccccc1F)c1sccc1Nc1ccnc2[nH]ccc12` [Example 58, 3-(1H-Pyrrolo[2,3-b]pyridin-4-ylamino)-thiophene-2-carboxylic acid [2-(2-fluoro-benzylamino)-ethyl]-amide], with less than 100 nM.
Take `O=C(NCCNCc1ccc2[nH]ccc2c1)c1sccc1Nc1ccnc2[nH]ccc12` [Example 59, 3-(1H-Pyrrolo[2,3-b]pyridin-4-ylamino)-thiophene-2-carboxylic acid {2-[(1H-indol-5-ylmethyl)-amino]-ethyl}-amide]: the IC50 is less than 100 nM.
Turning to `COc1ccccc1CNCCNC(=O)c1sccc1Nc1ccnc2[nH]ccc12` [Example 60, 3-(1H-Pyrrolo[2,3-b]pyridin-4-ylamino)-thiophene-2-carboxylic acid [2-(2-methoxy-benzylamino)-ethyl]-amide], the IC50 was less than 100 nM.
Then `O=C(NCCNCc1cccnc1)c1sccc1Nc1ccnc2[nH]ccc12` [Example 61, 3-(1H-Pyrrolo[2,3-b]pyridin-4-ylamino)-thiophene-2-carboxylic acid {2-[(pyridin-3-ylmethyl)-amino]-ethyl}-amide], with 100 to 1000 nM; and `O=C(NCCNCc1ccc(F)cc1)c1sccc1Nc1ccnc2[nH]ccc12` [Example 62, 3-(1H-Pyrrolo[2,3-b]pyridin-4-ylamino)-thiophene-2-carboxylic acid [2-(4-fluoro-benzylamino)-ethyl]-amide], with less than 100 nM; and `O=C(NCCNCc1ccc(F)c(Cl)c1)c1sccc1Nc1ccnc2[nH]ccc12` [Example 63, 3-(1H-Pyrrolo[2,3-b]pyridin-4-ylamino)-thiophene-2-carboxylic acid [2-(3-chloro-4-fluoro-benzylamino)-ethyl]-amide], with less than 100 nM.
With `NC1CCN(C(=O)c2sccc2Nc2ccnc3[nH]ccc23)CC1` [Example 64, (4-Amino-piperidin-1-yl)-[3-(1H-pyrrolo[2,3-b]pyridin-4-ylamino)-thiophen-2-yl]-methanone] the figure was 1000 to 10000 nM; with `O=C(c1sccc1Nc1ccnc2[nH]ccc12)N1CCC(NCc2ccccc2)CC1` [Example 65, (4-Benzylamino-piperidin-1-yl)-[3-(1H-pyrrolo[2,3-b]pyridin-4-ylamino)-thiophen-2-yl]-methanone], 1000 to 10000 nM.
Take `O=C(NCCSCc1ccccc1)c1sccc1Nc1ccnc2[nH]ccc12` [Example 66, 3-(1H-Pyrrolo[2,3-b]pyridin-4-ylamino)-thiophene-2-carboxylic acid (2-benzylsulfanyl-ethyl)-amide]: the IC50 lay in the range of 100 to 1000 nM.
With `NCCCNC(=O)c1sccc1Nc1ccnc2[nH]ccc12` [Example 67, 3-(1H-Pyrrolo[2,3-b]pyridin-4-ylamino)-thiophene-2-carboxylic acid (3-amino-propyl)-amide] the figure was 100 to 1000 nM; with `O=C(NCCOCc1ccccc1)c1sccc1Nc1ccnc2[nH]ccc12` [Example 68, 3-(1H-Pyrrolo[2,3-b]pyridin-4-ylamino)-thiophene-2-carboxylic acid (2-benzyloxy-ethyl)-amide], less than 100 nM.
